Test results reported in patent publication US6169181A, “Compounds useful to treat retroviral infections” (Pharmacia & Upjohn Company, priority 1998, dated 2001).
Values joined by “and” are separate entries in the source; they are usually repeats but may differ in a detail not shown here. Equal values may be shown once. Read-outs that look alike come from different tables or passages of the source.

How the values were obtained:
HIV-1 protease [1] = molecular target: T1, HIV-1 protease (Human immunodeficiency virus type 1 group M subtype B, UniProt P04585); assay: biochemical; conditions: read-out: Protease % Inhib
Summary of the method: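 A substrate biotinylated at the N-terminal arginine and FITC-labelled at the C-terminal lysine was incubated with HIV-1 protease (10 μl of 0.1 μM) and compound for 1 h in the dark at room temperature. Buffer was 0.1 M sodium acetate pH 5.5, 1.0 M NaCl, 0.05% NP-40. Labelled product was separated from substrate using streptavidin beads and filtration, and the fluorescence gave percent inhibition.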

HIV-1 protease [2] = molecular target: T1, HIV-1 protease; assay: biochemical; conditions: read-out: HIV Protease FITC Assay Ki
Summary of the method: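 Biotinylated, FITC-labelled peptide substrate cleaved in 0.1 M sodium acetate pH 5.5, 1.0 M NaCl, 0.05% NP-40, room temperature. Filtered labelled product read by fluorescence; nonlinear least-squares fit.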

Compound	inhibition at 0.123 µM (HIV-1 protease [1]; Table I, Dose 0.123 μM) [%]	inhibition at 0.37 µM (HIV-1 protease [1]; Table I, Dose 0.370 μM) [%]	inhibition at 1.1 µM (HIV-1 protease [1]; Table I, Dose 1.100 μM) [%]	inhibition at 3.3 µM (HIV-1 protease [1]; Table I, Dose 3.300 μM) [%]	inhibition at 10 µM (HIV-1 protease [1]; Table I, Dose 10.000 μM) [%]	inhibition at 30 µM (HIV-1 protease [1]; Table I, Dose 30.000 μM) [%]	Ki (HIV-1 protease [2]; Table I)	inhibition at 0.123 µM (HIV-1 protease [1]) [%]	inhibition at 0.37 µM (HIV-1 protease [1]) [%]	inhibition at 1.1 µM (HIV-1 protease [1]) [%]	inhibition at 3.3 µM (HIV-1 protease [1]) [%]	inhibition at 10 µM (HIV-1 protease [1]) [%]	inhibition at 30 µM (HIV-1 protease [1]) [%]	Ki (HIV-1 protease [2]) [nM]
CN(c1cccc(C(c2c(O)c3c(oc2=O)CCCCCC3)C2CC2)c1)S(=O)(=O)c1ccc(C#N)cc1 (centres unmarked) [Example 192, 4-Cyano-N-methyl-N-[3-[cyclopropyl(5,6,7,8,9,10-hexahydro-4-hydroxy-2-oxo-2H-cycloocta[b]pyran-3-yl)methyl]phenyl]-benzenesulfonamide]	44	76.3	94	96.9	103	94.4	7.2 nM	–	–	–	–	–	–	–
CN(c1cccc(C(c2c(O)c3c(oc2=O)CCCCCC3)C2CC2)c1)S(=O)(=O)c1ccc(F)cc1 (centres unmarked) [Example 193, 4-Fluoro-N-methyl-N-[3-[cyclopropyl(5,6,7,8,9,10-hexahydro-4-hydroxy-2-oxo-2H-cycloocta[b]pyran-3-yl)methyl]phenyl]-benzenesulfonamide]	18.4	40.3	77.7	98.1	108	103	35 nM	–	–	–	–	–	–	–
CN(c1cccc(C(c2c(O)c3c(oc2=O)CCCCCC3)C2CC2)c1)S(=O)(=O)c1cn(C)cn1 (centres unmarked) [Example 195, N-methyl-N-[3-[cyclopropyl(5,6,7,8,9,10-hexahydro-4-hydroxy-2-oxo-2H-cycloocta[b]pyran-3-yl)methyl]phenyl]-1H-Imidazole-1-methyl-sulfonamide]	60.9	85.1	90.8	90.8	93.1	92.7	3.7 nM	–	–	–	–	–	–	–
O=c1oc2c(c(O)c1C(c1cccc(NS(=O)(=O)c3ccccn3)c1)C1CC1)CCCCCC2 (centres unmarked) [Example 239]	83.6	96.6	98.4	99.5	103	108	1.44 nM and 0.86 nM	–	–	–	–	–	–	–
CCCC1(CCc2ccccc2)CC(O)=C(C(c2cccc(NS(=O)(=O)c3ccc(C#N)cn3)c2)C(C)(C)C)C(=O)O1 (centres unmarked) [Example 251, 5-Cyano-N-[3-(1-[5,6-dihydro-4-hydoxy-2-oxo-6-(2-phenethyl)-6-propyl-2H-pyran-3-yl]-2,2-dimethylpropyl)phenyl]-2-pyridinesulfonamide]	–	–	–	–	–	–	–	70.8	90.6	97.7	94.5	94.2	93.2	1.9
CCCC1(CCc2ccc(F)cc2)CC(O)=C(C(c2cccc(NS(=O)(=O)c3cn(C)cn3)c2)C(C)(C)C)C(=O)O1 (centres unmarked) [Example 252, N-[3-{1-(4-Hydroxy-5,6-dihydro-2-oxo-6-(2-(4-fluorophenyl)ethyl)-6-propyl-2H-pyran-3-yl)-2,2-dimethylpropyl}phenyl]-1-methyl-1H-imidazole-4-sulfonamide]	70	85	89.7	101	96.2	91.4	1.6 nM	–	–	–	–	–	–	–
Cn1cnc(S(=O)(=O)Nc2cccc(C(C3=C(O)CC(CCC4CC4)(CCC4CC4)OC3=O)C(C)(C)C)c2)c1 (centres unmarked) [Example 264, N-[3-(1-[6,6-Bis-(2-cyclopropyl-ethyl)-5,6-dihydro-4-hydroxy-2-oxo-2H-pyran-3-yl]-2,2-dimethyl-propyl)phenyl]-1-methyl-1H-imidazole-4-sulfonamide]	67.2	75	67.7	57.6	53.7	64.6	3.7 nM	–	–	–	–	–	–	–
CC(C)(C)C(C1=C(O)CC(CCC2CC2)(CCC2CC2)OC1=O)c1cccc(NS(=O)(=O)c2ccc(C#N)cn2)c1 (centres unmarked) [Example 265, N-[3-(1-[6,6-Bis-(2-cyclopropyl-ethyl)-5,6-dihydro-4-hydroxy-2-oxo-2H-pyran-3-yl]-2,2-dimethyl-propyl)phenyl]-5-cyano-2-pyridinesulfonamide]	33.2	56.3	57.8	63.7	80.3	85.6	1 nM	–	–	–	–	–	–	–
